Laboratory results as given in patent publication US20020107197A1, “Ligands for G protein coupled receptors and methods of using them” (priority 2000, published 2002).

How the values were obtained:
[1] = biological target: T1, GPR4 (Homo sapiens, UniProt P46093); assay: ERK MAP kinase activation (phospho-ERK Western blot) in GPR4-infected Swiss 3T3 cells; format: cell-based; conditions: for concentration at which ERK activation was evident / time point at which ERK activation was evident: GPR4-infected Swiss 3T3 cells; for GPR4-dependent ERK activation (in words): GPR4-ires-GFP vs GFP Swiss 3T3 cells, SPC and LPC 100 nM
T1 construct: were used to generate full length GPR4, which was digested with EcoRI and Xba I and cloned into the pBs3HA vector; expressed in transfected cells
T1 sequence (P46093 whole entry): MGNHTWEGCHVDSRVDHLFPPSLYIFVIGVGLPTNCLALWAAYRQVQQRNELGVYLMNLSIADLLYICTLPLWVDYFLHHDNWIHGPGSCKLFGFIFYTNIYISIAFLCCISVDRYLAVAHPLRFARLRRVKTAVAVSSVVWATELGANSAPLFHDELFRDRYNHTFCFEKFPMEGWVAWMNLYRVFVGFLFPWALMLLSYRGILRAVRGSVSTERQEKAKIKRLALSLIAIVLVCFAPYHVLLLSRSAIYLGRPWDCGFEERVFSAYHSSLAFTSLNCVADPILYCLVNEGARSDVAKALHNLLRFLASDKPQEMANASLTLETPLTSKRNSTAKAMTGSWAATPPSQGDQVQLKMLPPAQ
Method in brief: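 Swiss 3T3 cells transduced with MSCV GPR4-ires-GFP or empty vector, FACS-sorted for GFP, serum-starved overnight, then stimulated with lipids in DMEM. Phospho-ERK1/2 detected by Western blot with ECL, normalised to total ERK; some cells pretreated with 100 ng/ml PTX for 12–16 h before SPC or LPC.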

[2] = tested on: GPR4; assay: GPR4 expression in Jurkat cells by real-time quantitative RT-PCR; format: cell-based, human; conditions: 0.1 and 1 μM LPC, up to 24 hours
Protocol: (§1) Jurkat cells were treated with 0.1 and 1 μM LPC for various times (1, 2, 6, and 24 hours). At each time point, cells were collected and total RNA was extracted. Real-time quantitative PCR was utilized to determine relative amounts of GPR4 (shown in FIG. 1A and TDAG8 (shown in FIG. 1B) expressed under each condition. All PCR reactions were performed in triplicate.
(§2) In one scheme, total RNA is extracted from tissues using the RNeasy Total RNA System (Qiagen, Valencia, Calif.). One to five micrograms of total RNA are reverse transcribed using Superscript II RT (Gibco BRL, Rockville, Md.). Eight nanograms of derived cDNA are used as a template for real-time quantitative SYBR Green I PCR. Specific primers, that have already been established and used under these same conditions, are used for each individual receptor, with GAPDH being amplified in a separate tube as a housekeeping gene. The primers for GPR4 (Genbank accession number U2105 1) are 5′-[…]-3′ [SEQ ID NO. 1] and 5′-TCCAGTTGTCGTGGTGCAG-3′ [SEQ ID NO. 2] […] Amplified product is detected by measurement of SYBR Green I, which is added to the initial reaction mixture. […] The results are expressed as a fold-change in receptor expression levels compared to a baseline sample.
(§3) Jurkat cells were treated with 0.1 and 1 μM LPC for up to 24 hours followed by expression analysis of GPR4 and TDAG8 levels with real-time quantitative RT-PCR.

[3] = tested on: TDAG8; assay: TDAG8 expression in Jurkat cells by real-time quantitative RT-PCR; format: cell-based, human; conditions: 0.1 and 1 μM LPC, up to 24 hours
Protocol: as §1, §2, §3

[4] = tested on: cells; conditions: cited from earlier work
[5] = biological target: T1, GPR4; assay: Cell migration in modified Boyden chamber, GPR4-ires-GFP vs GFP Swiss 3T3 cells; format: cell-based; conditions: for increase of cell migration over GFP-Swiss 3T3 cells: 100 nM, lower chamber only; for chemokinetic assay: cell motility vs controls: lipid 100 nM in both upper and lower chambers, GFP or GFP-GPR4 Swiss 3T3 cells
Protocol: Chemotaxis was measured in a modified Boyden chamber assay. Briefly, different lipids were added to the lower chambers. GPR4-ires-GFP- and GFP-Swiss 3T3 cells were serum starved for 4 h, trypsinized, and seeded in the upper chambers of Boyden-transwell plates (Corning Inc., Corning, N.Y.). The chambers were incubated for 6 to 8 h. The number of cells that migrated to the lower face of the membrane was counted in 4 random fields. Data are represented as the average ±SD of three independent experiments. For the chemokinetic assay, the same concentrations of lipids were added to both the upper and lower chambers. For Rho inhibition studies, C3-exoenxyme was transiently transfected into Swiss 3T3 cells and cell migration assays were performed 48 hours later.

[6] = biological target: T2, OGR1 (Homo sapiens, UniProt Q15743); assay: SPC binding affinity for OGR1
T2 construct: expressed in transfected cells
T2 sequence (Q15743 whole entry, species assumed): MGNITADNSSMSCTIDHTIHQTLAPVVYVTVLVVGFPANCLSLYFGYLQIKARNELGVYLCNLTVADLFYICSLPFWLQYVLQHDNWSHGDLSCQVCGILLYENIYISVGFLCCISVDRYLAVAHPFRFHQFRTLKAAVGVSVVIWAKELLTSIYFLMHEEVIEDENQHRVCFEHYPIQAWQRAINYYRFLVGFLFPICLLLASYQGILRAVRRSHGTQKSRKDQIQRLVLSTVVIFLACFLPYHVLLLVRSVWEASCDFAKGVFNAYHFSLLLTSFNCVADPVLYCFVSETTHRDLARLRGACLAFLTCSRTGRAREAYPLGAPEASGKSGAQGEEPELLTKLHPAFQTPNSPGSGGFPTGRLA

[7] = tested on: Swiss 3T3 cells; assay: DNA synthesis ([3H]thymidine incorporation) in parental and GFP-infected Swiss 3T3 cells; format: cell-based
Protocol: (§4) The effect of SPC and LPC on DNA synthesis was measured using [^3H] thymidine incorporation. Briefly, GPR4-ires-GFP- and GFP-Swiss 3T3 cells were plated in 96-well plates, serum-starved for 24 h, and treated with SPC, LPC, or other lipids in serum-free DMEM for 24 h. Cells were incubated with 0.75 μCi/ml [^3H]thymidine in serum-free DMEM for the last 18 h. Cells were harvested onto filter papers presoaked in 1% polyethylenimine using the automated cell harvester HARVEST 96. Incorporated [^3H]thymidine was counted in a 1450 Microbeta Trilux Liquid Scintillation and Luminescence Counter (Perkin-Elmer-Wallac, Inc.).

[8] = biological target: T3, TDAG8 (Homo sapiens, UniProt Q8IYL9); assay: SRE luciferase reporter in TDAG8-transfected HEK293 cells; format: cell-based; conditions: lipid 1 μM, TDAG8-transfected HEK293 cells
T3 construct: expressed in transfected cells
T3 sequence (Q8IYL9 whole entry): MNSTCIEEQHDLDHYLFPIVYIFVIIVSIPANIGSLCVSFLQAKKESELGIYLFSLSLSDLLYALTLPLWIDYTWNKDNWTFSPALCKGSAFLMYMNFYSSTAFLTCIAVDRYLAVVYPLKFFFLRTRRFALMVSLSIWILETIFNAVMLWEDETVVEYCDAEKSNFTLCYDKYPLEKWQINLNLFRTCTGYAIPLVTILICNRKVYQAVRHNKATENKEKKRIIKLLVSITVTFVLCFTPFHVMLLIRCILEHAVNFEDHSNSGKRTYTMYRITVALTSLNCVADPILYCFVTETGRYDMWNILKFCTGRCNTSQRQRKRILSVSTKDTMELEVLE

[9] = tested on: HEY ovarian cancer cells; assay: DNA synthesis / growth of HEY ovarian cancer cells with SPC and phage preparations; format: cell-based, human; conditions: SPC 10 μM
Protocol: To determine if these selected phage clones were capable of blocking a biological effect of SPC, we mixed phage preparations with SPC. After a 30 min incubation, this mixture was added to HEY cells and its effect on SPC-induced cell proliferation was tested. If a phage clone was carrying a specific sequence which binds to SPC, the addition of the phage to SPC could block the effect of SPC on HEY cells.

[10] = biological target: T1, GPR4; assay: DNA synthesis ([3H]thymidine incorporation) in GPR4-infected Swiss 3T3 cells; format: cell-based; conditions: 3 μM, GPR4-infected Swiss 3T3 cells
Protocol: as §4

| Compound | concentration at which ERK activation was evident [1] | time point at which ERK activation was evident [1] [min] | GPR4-dependent ERK activation (in words) [1] | regulation of GPR4 expression [2] | regulation of TDAG8 expression [3] | concentration at which cells are lysed [4] [µM] | increase of cell migration over GFP-Swiss 3T3 cells [5] [fold] | chemokinetic assay: cell motility vs controls [5] | Kd [6] [nM] | increase of DNA synthesis ([7]; 3 μM, parental and GFP-infected cells) | activation of SRE reporter [8] [fold] | effect on DNA synthesis in HEY cells [9] | increase of [3H]thymidine incorporation [10] [fold] | DNA synthesis response (in words) ([7]; GFP-expressing cells) |
| --- | --- | --- | --- | --- | --- | --- | --- | --- | --- | --- | --- | --- | --- | --- |
| lysophosphatidylcholine [LPC] | ~100 nM | 5 | enhanced ERK activation | time- and dose-dependent up regulation | time- and dose-dependent up regulation | > 30 |  |  |  |  |  |  |  |  |
| CCCCCCCCCCCCC/C=C/[C@@H](O)[C@@H](N)COP(=O)([O-])OCC[N+](C)(C)C [SPC, Sphingosylphosphorylcholine] | approximately 10 nM | 1 | enhanced ERK activation |  |  |  | 2.0 | did not significantly change cell motility | 33 | approximately 6.3 fold | 4 | inhibited DNA synthesis |  |  |
| CCCCCCCCCCCCCCCC(=O)OC[C@@H](O)COP(=O)([O-])OCC[N+](C)(C)C [16:0-LPC] |  |  |  |  |  |  | 1.7 | did not significantly change cell motility |  |  | 3.1 |  | 1.6 | did not respond significantly |
